Laboratory results from patent publication US20050203068A1, “Pharmaceutical compositions containing water-soluble prodrugs of propofol and methods of administering same” (priority 2002, published 2005).
Where a name gives a salt, the structure may show the parent alone.

Experiments:
healthy male volunteers = assay: Target controlled infusion (TCI) of AQUAVAN vs propofol: EEG, loss/recovery of consciousness and corneal reflex; assay type: in vivo, human; conditions: for Time to LOCR (loss of corneal reflex) / Time to ROC (recovery of consciousness) / Time to ROCR (recovery of corneal reflex) / Time to LOC (loss of consciousness): TCI infusion 60 min, propofol targets 5, 3, 1.5 micrograms/ml; for Time to LOC (loss of consciousness): time after start of infusion
Procedure: This example compares the effects of target controlled infusions (TCI) of propofol and of O-phosphonooxymethyl propofol disodium salt (AQUAVAN™) on electrical brain activity and consciousness of healthy male volunteers. A sterile solution was prepared in a 20 mL vial, with 20 mg/mL of AQUAVAN™ and 0.4 wt % NaCl. The pH of the solution was adjusted to 8.6±0.4 with HCl or NaOH, as needed.
Nine male volunteers (age 19 to 35 yrs., body wt. 70 to 86 kg) received propofol as a target controlled infusion (TCI) with three different target concentrations over 60 min. After a washout period of 14 days, the same volunteers received a TCI infusion of AQUAVAN™ with identical propofol target concentrations (crossover design). The infusion scheme was a linear increasing propofol concentration up to 5 micrograms/ml for the first 20 minutes, a target of 3 micrograms/ml for the following 20 minutes, and a target propofol plasma concentration of 1.5 micrograms/ml for the following 20 minutes. At 60 minutes, the infusion was stopped.
The EEG was recorded using the CATEEM® system and the data analysis was based on the lead O1-CZ. All subjects were tested every 1.5 minutes for Loss and Recovery of Consciousness (LOC and ROC), and for Loss and Recovery of Corneal Reflex (LOCR and ROCR). Arterial blood samples were drawn at predetermined times up to 240 minutes after start of the infusion. The AQUAVAN™ and propofol plasma concentrations were measured with an LC/MS/MS validated assay and an HPLC-FL validated assay (see FIG. 1).

healthy subjects [1] = assay: Single bolus AQUAVAN vs equipotent rapid infusion of propofol: anesthetic effect (BIS, LOC, ROC, DOU), adverse events; assay type: in vivo, human; conditions: for Pain on injection, incidence / Apnea, incidence / Initial increase in heart rate (HR>90 bpm), incidence: 24 subjects; for Pain on injection, incidence: all cohorts; for Apnea, incidence: dose-dependent; for Initial increase in heart rate (HR>90 bpm), incidence: following administration; for Initial increase in heart rate (HR>90 bpm), incidence / Time of BISpeak (lowest BIS level): p<0.05; for Time of BISpeak (lowest BIS level): AQUAVAN bolus 5-25 mg/kg, propofol rapid infusion 300 ml/h to similar BISpeak; for DOU (duration of unconsciousness) / Time to LOC / Time to ROC: n=6, mean ± SD
Procedure: This example compares the pharmacodynamics of propofol when administered as a single, bolus dose of the prodrug O-phosphonooxymethyl-propofol di-sodium salt (AQUAVAN™) in accordance with the present invention, to the pharmacodynamics of propofol when administered as such. A sterile solution, the “study formulation,” was prepared in a 20 mL vial, with 20 mg/mL of AQUAVAN™ and 0.4 wt % NaCl. The pH of the solution was adjusted to 8.6±0.4 with HCl or NaOH, as needed.
(§1) Twenty-four healthy subjects (all ASA 1, 25±5 yrs., 70±8 kg) were randomized into 4 cohorts, with 3 male and 3 female in each. Each of the four cohorts was given a single dose of the study formulation described in Table 1 above (5, 10, 20, and 25 mg/kg, AQUAVAN™ respectively). Anesthetic effect was measured continuously using a BIS-XP monitor (Aspect Medical Systems, Natick, Mass.). The lowest BIS level (BISpeak) was recorded. One week later, propofol was given to the same individuals at a rapid infusion rate of 300 ml/h to reach a similar BISpeak. Heart rate (HR), O2 saturation, systolic (SBP) and diastolic (DBP) blood pressure were monitored non-invasively. Incidence and duration of apnea, loss (LOC) and return (ROC) of consciousness and duration of unconsciousness (DOU) were measured with the OAA/S score. Adverse events were recorded. Statistical analysis was performed using Wilcoxon Signed Ranks Test, Mann-Whitney-U test, Chi-Square test and Pearson correlation where appropriate.

patients = conditions: anesthetic induction doses of propofol; Bryson et al.; cited from earlier work
healthy volunteers = assay: TCI infusion of AQUAVAN over 2 hours: alertness/sedation (OAA/S, BIS), haemodynamics, propofol plasma concentration
Procedure: A sterile solution of AQUAVAN™ was prepared as described for Example 1, above.
Six female (28±3 yrs, 57±4 kg body weight) and 6 male (32±6 yrs., 78±9 kg body weight) volunteers were studied. For a period of 2 hours, a TCI infusion of AQUAVAN™ was administered to provide adequate sedation. The initially selected target concentration of propofol from AQUAVAN™ was 1.8 μg/ml. Sedation was rated as adequate if according to a modified Observers Assessment of Alertness and Sedation Scale (OAA/S) the OAA/S scale value was 2 to 3. After 60 minutes, the target concentration was increased to 2.4 or 3 μg/ml if the OAA/S scale value was 4 or 5, respectively, or reduced to 1.4 μg/ml if the OAA/S scale value was 0 to 1. With an Aspect® A-1000 monitor and two frontal leads the BIS values were recorded. The ECG, blood pressure, heart rate, SaO2 and GPI as well as propofol plasma concentrations were measured. All values are given as mean±standard deviation.

healthy subjects [2] = assay: Single bolus AQUAVAN, six cohorts: lowest OAA/S score and duration of sedation; assay type: in vivo, human
Procedure: as §1
In addition to induction of unconsciousness and duration of general anesthesia (see above), the response of the study subjects to AQUAVAN™ was also examined with regard to sedation. For this purpose, two additional cohorts (n=6 each) were dosed with 15 and 30 mg/kg of AQUAVAN™ as described above. For subjects in all six cohorts, the lowest OAA/S score achieved after AQUAVAN™ administration and the duration of sedation were recorded, with an OAA/S score of 5 indicating no sedation, scores ranging from 4-2 indicating increasingly deep sedated states, and a score of 1 indicating loss of consciousness (LOC)(but allowing for an undirected response to painful tactile stimuli). […] A conscious sedated state typically preceded and followed a period of unconsciousness in subjects who reached LOC. “Mean duration of sedation/LOC” in Table 4 refers to the total time interval from onset of sedation through LOC to recovery of alertness (no sedation).

[3] = Cohort 3 (20 mg/kg AQUAVAN bolus; propofol rapid infusion to similar BISpeak)
[4] = Cohort 4 (25 mg/kg AQUAVAN bolus; propofol rapid infusion to similar BISpeak)

CC(C)c1cccc(C(C)C)c1O [propofol, 2,6-diisopropylphenol]
Time to LOCR (loss of corneal reflex) (healthy male volunteers): 19 ± 6 min
Time to ROC (recovery of consciousness) (healthy male volunteers): 47 ± 10 min
Time to ROCR (recovery of corneal reflex) (healthy male volunteers): 32 ± 10 min
Time to LOC (loss of consciousness) (healthy male volunteers): 13 ± 2 min
Pain on injection, incidence (healthy subjects [1]): 10 of the 24
Apnea, incidence (healthy subjects [1]): 10 of 24
Initial increase in heart rate (HR>90 bpm), incidence (healthy subjects [1]): 4 of the 24
Time of BISpeak (lowest BIS level) (healthy subjects [1]): 358 ± 315 s
DOU (duration of unconsciousness) (healthy subjects [1]; [3]): 416 ± 94 s
Time to LOC (healthy subjects [1]; [3]): 184 ± 63 s
Time to ROC (healthy subjects [1]; [3]): 600 ± 105 s
DOU (duration of unconsciousness) (healthy subjects [1]; [4]): 748 ± 245 s
Time to LOC (healthy subjects [1]; [4]): 208 ± 84 s
Time to ROC (healthy subjects [1]; [4]): 956 ± 294 s
Respiratory consequences, including reduction in tidal volume and apnea: share of patients (patients): up to 83%

CC(C)c1cccc(C(C)C)c1OCOP(=O)(O)O [AQUAVAN, O-phosphonooxymethyl propofol disodium salt]
Time to LOCR (loss of corneal reflex) (healthy male volunteers): 16 ± 5 min
Time to ROC (recovery of consciousness) (healthy male volunteers): 73 ± 13 min
Time to ROCR (recovery of corneal reflex) (healthy male volunteers): 46 ± 15 min
Time to LOC (loss of consciousness) (healthy male volunteers): 9 ± 2 min
Decrease of Median Power Frequency (MPF) in the EEG (healthy male volunteers; plasma propofol from AQUAVAN compared to plasma propofol from propofol, comparable plasma concentrations): greater decrease of the MPF
OAA/S scale value after 60 minutes (healthy volunteers; TCI infusion, initial propofol target 1.8 μg/ml, mean±SD): 3.7±1.1
Time after stopping the infusion to recovery to OAA/S scale value of 5 (healthy volunteers; after 2 hour TCI infusion, mean±SD): 18 ± 3 min
Systolic BP after decrease (healthy volunteers; decreased from 134±14): 106±10 mm Hg
BIS value (healthy volunteers; during the first hour of infusion (96±2 before infusion)): 74±13
BIS value (healthy volunteers; during the second hour of infusion): 64±14
Heart rate increase (healthy volunteers; from 64±14 to 72±8): 13%
Systolic BP decrease (healthy volunteers; from 134±14 to 106±10 mm Hg): 21%
Heart rate after increase (healthy volunteers; increased from 64±14): 72±8
Time after TCI target change until OAA/S scale value in target range of 2 to 3 (healthy volunteers; target changed at 60 minutes, mean±SD): 4.2 ± 2.5 min
Loss of consciousness (LOC) reached (healthy subjects [1]; 5 mg/kg single bolus cohort): no LOC was reached
Loss of consciousness (LOC) reached (healthy subjects [1]; 10 mg/kg single bolus cohort): no LOC was reached
Loss of consciousness (LOC) reached (healthy subjects [1]; 20 mg/kg single bolus cohort): all subjects reached LOC
Loss of consciousness (LOC) reached (healthy subjects [1]; 25 mg/kg single bolus cohort): all subjects reached LOC
Pain on injection, incidence (healthy subjects [1]): only reported for propofol
Apnea, incidence (healthy subjects [1]): 7 of 24
Initial increase in heart rate (HR>90 bpm), incidence (healthy subjects [1]): 17 of the 24
Time of BISpeak (lowest BIS level) (healthy subjects [1]): 630 ± 225 s
DOU (duration of unconsciousness) (healthy subjects [1]; [3]): 1507 ± 914 s
Time to LOC (healthy subjects [1]; [3]): 157 ± 69 s
Time to ROC (healthy subjects [1]; [3]): 1664 ± 920 s
DOU (duration of unconsciousness) (healthy subjects [1]; [4]): 2703 ± 267 s
Time to LOC (healthy subjects [1]; [4]): 162 ± 40 s
Time to ROC (healthy subjects [1]; [4]): 2865 ± 245 s
Duration - range (healthy subjects [2]; Cohort 1: 5 mg/kg bolus): 0 to 16 min
Mean duration of sedation/LOC (healthy subjects [2]; Cohort 1: 5 mg/kg bolus): 4.2 min
Duration - range (healthy subjects [2]; Cohort 2: 10 mg/kg bolus): 0 to 24 min
Mean duration of sedation/LOC (healthy subjects [2]; Cohort 2: 10 mg/kg bolus): 14 min
Duration - range (healthy subjects [2]; Cohort 3: 20 mg/kg bolus): 22 to 45 min
Mean duration of sedation/LOC (healthy subjects [2]; Cohort 3: 20 mg/kg bolus): 39.5 min
Duration - range (healthy subjects [2]; Cohort 4: 25 mg/kg bolus): 42 to 78 min
Mean duration of sedation/LOC (healthy subjects [2]; Cohort 4: 25 mg/kg bolus): 57.8 min
Duration - range (healthy subjects [2]; Cohort 5: 15 mg/kg bolus): 18 to 34 min
Lowest OAA/S Score (subjects - score) (healthy subjects [2]; Cohort 5: 15 mg/kg bolus): 6/6 - 1 (LOC)
Mean duration of sedation/LOC (healthy subjects [2]; Cohort 5: 15 mg/kg bolus): 22.6 min
Duration - range (healthy subjects [2]; Cohort 6: 30 mg/kg bolus): 43 to 96 min
Mean duration of sedation/LOC (healthy subjects [2]; Cohort 6: 30 mg/kg bolus): 54.3 min
State observed after bolus (healthy subjects [2]; bolus doses of 15 mg/kg and higher): induced unconscious states that varied in duration
State observed after bolus (healthy subjects [2]; dose ranges of 5-10 mg/kg): Conscious sedation, but no loss of consciousness
